Data on 13 molecules can be found in patent US8906914B2, “Ethylene diamine modulators of fatty acid hydrolase” (priority 2009, dated 2014).

Counter-ions that a name gives are not always drawn. A value given as a limit tells only on which side of the number the result lay.

The target in one assay is T1, Rat FAAH-1 (Rattus norvegicus, UniProt P97612).
T1 construct: expressed in transfected cells
T1 sequence (P97612 1-579): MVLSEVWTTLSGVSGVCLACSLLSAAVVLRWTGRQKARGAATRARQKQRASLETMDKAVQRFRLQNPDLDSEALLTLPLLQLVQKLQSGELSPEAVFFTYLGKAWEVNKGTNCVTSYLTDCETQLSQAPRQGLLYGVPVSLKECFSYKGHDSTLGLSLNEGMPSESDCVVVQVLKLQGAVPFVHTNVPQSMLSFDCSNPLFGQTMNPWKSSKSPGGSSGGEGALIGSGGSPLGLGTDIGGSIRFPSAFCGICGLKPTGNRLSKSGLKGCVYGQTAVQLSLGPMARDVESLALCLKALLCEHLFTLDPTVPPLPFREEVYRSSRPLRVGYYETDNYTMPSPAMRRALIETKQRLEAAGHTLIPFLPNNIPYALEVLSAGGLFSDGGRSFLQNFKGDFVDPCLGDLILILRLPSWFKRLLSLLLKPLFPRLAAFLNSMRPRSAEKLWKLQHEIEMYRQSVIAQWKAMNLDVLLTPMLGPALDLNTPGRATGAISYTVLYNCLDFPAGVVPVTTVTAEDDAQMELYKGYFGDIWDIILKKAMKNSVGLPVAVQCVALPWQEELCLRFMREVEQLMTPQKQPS
Put plainly: Rat FAAH-1 assay (Assay Method 2), 3H-anandamide hydrolysis in cell homogenate. Type of assay: biochemical. As to the method: A. Transfection of Cells with Rat FAAH-1
(§1) A 10-cm tissue culture dish with a confluent monolayer of SK-N-MC cells was split 2 days (d) prior to transfection. Using sterile technique, the media was removed and the cells were detached from the dish by the addition of trypsin. One fifth of the cells were then placed onto a new 10-cm dish. Cells were grown in a 37° C. incubator with 5% CO2 in Minimal Essential Media Eagle with 10% Fetal Bovine Serum. After 2 d, cells were approximately 80% confluent. These cells were removed from the dish with trypsin and pelleted in a clinical centrifuge. The pellet was re-suspended in 400 μL complete media and transferred to an electroporation cuvette with a 0.4 cm gap between the electrodes. Supercoiled rat FAAH cDNA (1 μg) was added to the cells and mixed. The voltage for the electroporation was set at 0.25 kV, and the capacitance was set at 960 μF. After electroporation, the cells were diluted into complete media (10 mL) and plated onto four 10-cm dishes. Because of the variability in the efficiency of electroporation, four different concentrations of cells were plated. The ratios used were 1:20, 1:10, and 1:5, with the remainder of the cells being added to the fourth dish. The cells were allowed to recover for 24 h before adding the selection media (complete media with 600 μg/mL G418). After 10 d, dishes were analyzed for surviving colonies of cells. Dishes with well-isolated colonies were used. Cells from individual colonies were isolated and tested.
(§2) The assay mixture consisted of 50 μL of the cell homogenate, 10 μL of the test compound, and 40 μL of anandamide [1-^3H-ethanolamine] (^3H-AEA, Perkin-Elmer, 10.3 Ci/mmol), which was added last, for a final tracer concentration of 80 nM. The reaction mixture was incubated at rt for 1 h. During the incubation, 96-well Multiscreen filter plates (catalog number MAFCNOB50; Millipore, Bedford, Mass., USA) were loaded with 25 μL of activated charcoal (Multiscreen column loader, catalog number MACL09625, Millipore) and washed once with 100 μL of MeOH. Also during the incubation, 96-well DYNEX MicroLite plates (catalog number NL510410) were loaded with 100 μL of MicroScint40 (catalog number 6013641, Packard Bioscience, Meriden, Conn., USA). After the 1 h incubation, 60 μL of the reaction mixture were transferred to the charcoal plates, which were then assembled on top of the DYNEX plates using Centrifuge Alignment Frames (catalog number MACF09604, Millipore). The unbound labeled ethanolamine was centrifuged through to the bottom plate (5 min at 2000 rpm), which was preloaded with the scintillant, as described above. The plates were sealed and left at rt for 1 h before counting on a Hewlett Packard TopCount.
(§3) Where activity is shown as greater than (>) a particular value, the value is the solubility limit of the compound in the assay medium or the highest concentration tested in the assay.

For the next assay, the target named is T2, FAAH (Homo sapiens, UniProt O00519).
T2 sequence (O00519 1-579): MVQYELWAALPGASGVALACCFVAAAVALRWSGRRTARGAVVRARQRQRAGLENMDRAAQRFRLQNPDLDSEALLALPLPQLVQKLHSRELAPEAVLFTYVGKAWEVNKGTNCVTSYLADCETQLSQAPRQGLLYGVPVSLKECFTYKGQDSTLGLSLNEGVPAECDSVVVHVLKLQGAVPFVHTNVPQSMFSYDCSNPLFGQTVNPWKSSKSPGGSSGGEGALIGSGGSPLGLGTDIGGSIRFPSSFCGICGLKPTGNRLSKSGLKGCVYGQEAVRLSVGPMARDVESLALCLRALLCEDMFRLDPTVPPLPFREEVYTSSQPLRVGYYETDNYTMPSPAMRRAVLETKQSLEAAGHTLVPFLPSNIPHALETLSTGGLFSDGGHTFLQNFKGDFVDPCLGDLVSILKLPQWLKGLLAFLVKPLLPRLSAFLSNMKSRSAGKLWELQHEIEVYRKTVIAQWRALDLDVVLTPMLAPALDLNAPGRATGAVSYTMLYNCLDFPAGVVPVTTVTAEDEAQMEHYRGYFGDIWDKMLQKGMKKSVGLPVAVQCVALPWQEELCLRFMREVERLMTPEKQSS
Put plainly: Human FAAH assay (Assay Method 1), 3H-anandamide hydrolysis in cell homogenate. Format: biochemical. Details: expressed in transfected cells; alternatively T84 frozen cell pellets (endogenous FAAH). As to the method:
A. Transfection of Cells with Human FAAH
as §1, with “Supercoiled human” for “Supercoiled rat”
as §2, with “[1-3H-ethanolamine]” for “[1-^3H-ethanolamine]”
as §3

For the molecule `N[C@@H](CNc1cc(-c2ccc(Cl)cc2)ncn1)c1ccccc1` [Example 14, (1R)—N^2-[6-(4-Chlorophenyl)pyrimidin-4-yl]-1-phenylethane-1,2-diamine hydrochloride acid salt], the half-inhibitory concentration (IC50) against Rat FAAH-1 is above 10000 nM; at FAAH, 1000 nM.
As for `N[C@@H](CNc1cc(-c2ccc(OC(F)(F)F)c(Cl)c2)ncn1)c1ccccc1` [Example 7, (1R)—N^2-{6-[3-Chloro-4-(trifluoromethoxy)phenyl]pyrimidin-4-yl}-1-phenylethane-1,2-diamine hydrochloride acid salt], the half-maximal inhibitory concentration (IC50) at Rat FAAH-1 came to 120 nM; against FAAH, 53 nM.
In the same order, the values of `N[C@@H](CNc1cc(-c2cc(F)c(OC(F)F)c(F)c2)ncn1)c1ccccc1` [Example 12, (1R)—N^2-{6-[4-(Difluoromethoxy)-3,5-difluorophenyl]pyrimidin-4-yl}-1-phenylethane-1,2-diamine hydrochloride acid salt] are 100 nM and 12 nM.
In the same order, the values of `N[C@@H](CNc1cc(-c2ccc(C(F)(F)F)c(Cl)c2)ncn1)c1ccc(SC(F)(F)F)cc1` [Example 61, (1R)—N^2-[6-(3-Chloro-4-trifluoromethyl-phenyl)-pyrimidin-4-yl]-1-(4-trifluoromethylsulfanyl-phenyl)-ethane-1,2-diamine] are 130 nM and 180 nM.
Turning to `N[C@H](CNc1cc(-c2ccc(C(F)(F)F)c(Cl)c2)ncn1)c1ccc(F)c(F)c1` [Example 40, (1S)—N^2-[6-(3-Chloro-4-trifluoromethyl-phenyl)-pyrimidin-4-yl]-1-(3,4-difluoro-phenyl)-ethane-1,2-diamine, trifluoroacetic acid salt], the results for the 50% inhibitory concentration (IC50) on Rat FAAH-1 and against FAAH were 5000 nM and 1000 nM, respectively.
The like results for `N[C@@H](CNc1cc(-c2cc3cc(OC(F)(F)F)ccc3s2)ncn1)c1ccccc1` [Example 25, (1R)-1-Phenyl-N^2-{6-[5-(trifluoromethoxy)-1-benzothiophen-2-yl]pyrimidin-4-yl}ethane-1,2-diamine hydrochloride acid salt] were, in that order, 370 nM and 80 nM.
The like results for `N[C@@H](CNc1cc(-c2ccc(OC(F)(F)F)c(F)c2)ncn1)c1ccc(F)cc1` [Example 64, (1R)—N^2-1-(4-Fluoro-phenyl)-[6-(3-fluoro-4-trifluoromethoxy-phenyl)-pyrimidin-4-yl]-ethane-1,2-diamine, trifluoroacetic acid salt] were, in that order, 75 nM and 66 nM.
In the same order, the values of `N[C@@H](CNc1cc(-c2ccc(C(F)(F)F)c(Cl)c2)ncn1)c1ccc(Cl)cc1` [Example 39, (1R)—N^2-1-(4-Chloro-phenyl)-[6-(3-chloro-4-trifluoromethyl-phenyl)-pyrimidin-4-yl]-ethane-1,2-diamine, trifluoroacetic acid salt] are 40 nM and 66 nM.
For the molecule `N#Cc1cc([C@@H](N)CNc2cc(-c3ccc(C(F)(F)F)c(Cl)c3)ncn2)ccc1F` [Example 62, (1R)-5-{1-Amino-2-[6-(3-chloro-4-trifluoromethyl-phenyl)-pyrimidin-4-ylamino]-ethyl}-2-fluoro-benzonitrile], the IC50 on Rat FAAH-1 was 300 nM; against FAAH it was 320 nM.
In the same order, the values of `NC(CNc1cc(-c2ccc(C(F)(F)F)c(Cl)c2)ncn1)c1ccccc1F` (centres unmarked) [Example 35, N^2-[6-(3-Chloro-4-trifluoromethyl-phenyl)-pyrimidin-4-yl]-1-(2-fluoro-phenyl)-ethane-1,2-diamine] are 280 nM and 170 nM.
On to `N#Cc1cccc([C@H](N)CNc2cc(-c3ccc(C(F)(F)F)c(Cl)c3)ncn2)c1` [Example 48, (1S)-3-{1-Amino-2-[6-(3-chloro-4-trifluoromethyl-phenyl)-pyrimidin-4-ylamino]-ethyl}-benzonitrile], for which the IC50 against Rat FAAH-1 and against FAAH was 3000 nM throughout.
For the molecule `N[C@@H](CNc1cc(-c2ccc(OC(F)(F)F)cc2)ncn1)c1ccccc1` [Example 6, (1R)-1-Phenyl-N^2-{6-[4-(trifluoromethoxy)phenyl]pyrimidin-4-yl}ethane-1,2-diamine hydrochloride acid salt], the half-inhibitory concentration (IC50) against Rat FAAH-1 came to 880 nM; against FAAH, 82 nM.
In the same order, the values of `N[C@@H](CNc1cc(-c2ccc3c(c2)OC(F)(F)O3)ncn1)c1ccccc1` [Example 24, (1R)—N^2-[6-(2,2-Difluoro-1,3-benzodioxol-5-yl)pyrimidin-4-yl]-1-phenylethane-1,2-diamine hydrochloride acid salt] are 1000 nM and 270 nM.

As a reminder, the IC50 is the concentration that gives 50% inhibition. High values mean lower potency, low ones higher potency.
